Reference: PubChem BioAssay AID2060903 (Molecular Pharmacology Branch, DTP, NCI, 2025)

System: 377384-186-R-J1-PDC complex spheroid viability
Assay: Anticancer human tumor 377384-186-R-J1-PDC patient-derived pancreatic carcinoma cell line growth inhibition [RAS]
Conditions: for IC50: curve of first compound; for viability, T/C: stronger effect = lower value
Method in brief: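 Tumour cells grown as complex spheroids with HUVEC endothelial cells and mesenchymal stem cells, treated with RAS pathway inhibitor combinations. Each agent spans half-log steps from near clinical Cmax, or 10 microM where Cmax is unknown.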

[1] = second compound 0.000949 µM, first compound 0.0316 µM
[2] = second compound 0.000949 µM, first compound 0.1 µM
[3] = second compound 0.000949 µM, first compound 0.316 µM
[4] = second compound 0.000949 µM, first compound 1 µM
[5] = second compound 0.003 µM, first compound 0.0316 µM
[6] = second compound 0.003 µM, first compound 0.1 µM
[7] = second compound 0.003 µM, first compound 0.316 µM
[8] = second compound 0.003 µM, first compound 1 µM
[9] = second compound 0.00949 µM, first compound 0.0316 µM
[10] = second compound 0.00949 µM, first compound 0.1 µM
[11] = second compound 0.00949 µM, first compound 0.316 µM
[12] = second compound 0.00949 µM, first compound 1 µM
[13] = second compound 0.03 µM, first compound 0.0316 µM
[14] = second compound 0.03 µM, first compound 0.1 µM
[15] = second compound 0.03 µM, first compound 0.316 µM
[16] = second compound 0.03 µM, first compound 1 µM
[17] = second compound 0.0949 µM, first compound 0.0316 µM
[18] = second compound 0.0949 µM, first compound 0.1 µM
[19] = second compound 0.0949 µM, first compound 0.316 µM
[20] = second compound 0.0949 µM, first compound 1 µM
[21] = second compound 0.3 µM, first compound 0.0316 µM
[22] = second compound 0.3 µM, first compound 0.1 µM
[23] = second compound 0.3 µM, first compound 0.316 µM
[24] = second compound 0.3 µM, first compound 1 µM
[25] = second compound 0.000949 µM, first compound 3.16 µM
[26] = second compound 0.000949 µM, first compound 10 µM
[27] = second compound 0.003 µM, first compound 3.16 µM
[28] = second compound 0.003 µM, first compound 10 µM
[29] = second compound 0.00949 µM, first compound 3.16 µM
[30] = second compound 0.00949 µM, first compound 10 µM
[31] = second compound 0.03 µM, first compound 3.16 µM
[32] = second compound 0.03 µM, first compound 10 µM
[33] = second compound 0.0949 µM, first compound 3.16 µM
[34] = second compound 0.0949 µM, first compound 10 µM
[35] = second compound 0.3 µM, first compound 3.16 µM
[36] = second compound 0.3 µM, first compound 10 µM
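Further: spheroids exposed to compounds for seven days before readout.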

`CCN1CCN(Cc2ccc(Nc3ncc(F)c(-c4cc(F)c5nc(C)n(C(C)C)c5c4)n3)nc2)CC1` + CCn1c(-c2cccnc2C(C)OC)c2c3cc(ccc31)N1CCOC(CC(NC(=O)C(C(C)C)N(C)C(=O)C3(F)CCN(C(=O)C#CC(C)(C)N(C)C)CC3)C(=O)N3CCCC(N3)C(=O)OCC(C)(C)C2)C1 showed an IC50 (second compound 0.000949 µM) of 0.315 µM, an IC50 (second compound 0.003 µM) of 0.222 µM and an IC50 (second compound 0.00949 µM) of 0.257 µM. The IC50 (second compound 0.03 µM) was 0.126 µM, the IC50 (second compound 0.0949 µM) was 0.178 µM and the IC50 (second compound 0.3 µM) was 0.0837 µM. For the same compound, the viability, T/C (second compound 0.000949 µM, first compound 0.00316 µM) was 97%, the viability, T/C (second compound 0.000949 µM, first compound 0.01 µM) was 75.4% and the viability, T/C [1] was 68.4%. The viability, T/C [2] was 65.8%, the viability, T/C [3] was 46.6% and the viability, T/C [4] was 42%. It also gave a viability, T/C (second compound 0.003 µM, first compound 0.00316 µM) of 96%, a viability, T/C (second compound 0.003 µM, first compound 0.01 µM) of 78.7% and a viability, T/C [5] of 75.3%. It also gave a viability, T/C [6] of 54.6%, a viability, T/C [7] of 45.8% and a viability, T/C [8] of 41.3%. It also gave a viability, T/C (second compound 0.00949 µM, first compound 0.00316 µM) of 102%, a viability, T/C (second compound 0.00949 µM, first compound 0.01 µM) of 93.4% and a viability, T/C [9] of 65.2%. The viability, T/C [10] was 60%, the viability, T/C [11] was 50.2% and the viability, T/C [12] was 43.2%. The viability, T/C (second compound 0.03 µM, first compound 0.00316 µM) was 81.2%, the viability, T/C (second compound 0.03 µM, first compound 0.01 µM) was 89.2% and the viability, T/C [13] was 75.9%. The viability, T/C [14] was 52%, the viability, T/C [15] was 43% and the viability, T/C [16] was 44.5%. It also gave a viability, T/C (second compound 0.0949 µM, first compound 0.00316 µM) of 85%, a viability, T/C (second compound 0.0949 µM, first compound 0.01 µM) of 83.3% and a viability, T/C [17] of 73.9%. For the same compound, the viability, T/C [18] was 58.8%, the viability, T/C [19] was 41.3% and the viability, T/C [20] was 34.5%. For the same compound, the viability, T/C (second compound 0.3 µM, first compound 0.00316 µM) was 75.3%, the viability, T/C (second compound 0.3 µM, first compound 0.01 µM) was 73% and the viability, T/C [21] was 64.2%. It also gave a viability, T/C [22] of 48.4%, a viability, T/C [23] of 34.5% and a viability, T/C [24] of 35.3%.
With `Cc1nc(N2CCC3(CC2)COC(C)C3N)c(CO)nc1Sc1ccnc(N)c1Cl` (stereo unspecified) + CCn1c(-c2cccnc2C(C)OC)c2c3cc(ccc31)N1CCOC(CC(NC(=O)C(C(C)C)N(C)C(=O)C3(F)CCN(C(=O)C#CC(C)(C)N(C)C)CC3)C(=O)N3CCCC(N3)C(=O)OCC(C)(C)C2)C1 the IC50 (second compound 0.000949 µM) was > 10 µM, the IC50 (second compound 0.003 µM) was > 10 µM and the IC50 (second compound 0.00949 µM) was > 10 µM. For the same compound, the IC50 (second compound 0.03 µM) was > 10 µM, the IC50 (second compound 0.0949 µM) was > 10 µM and the IC50 (second compound 0.3 µM) was > 10 µM. It also gave a viability, T/C [1] of 91.7%, a viability, T/C [2] of 84.8% and a viability, T/C [3] of 78.1%. The viability, T/C [4] was 83.8%, the viability, T/C [25] was 79.5% and the viability, T/C [26] was 78.4%. It also gave a viability, T/C [5] of 95%, a viability, T/C [6] of 97.7% and a viability, T/C [7] of 95%. The viability, T/C [8] was 84.7%, the viability, T/C [27] was 87.7% and the viability, T/C [28] was 72.6%. It also gave a viability, T/C [9] of 103%, a viability, T/C [10] of 74.7% and a viability, T/C [11] of 74.8%. For the same compound, the viability, T/C [12] was 75%, the viability, T/C [29] was 90% and the viability, T/C [30] was 79%. For the same compound, the viability, T/C [13] was 86.2%, the viability, T/C [14] was 87.3% and the viability, T/C [15] was 91%. It also gave a viability, T/C [16] of 79%, a viability, T/C [31] of 74.4% and a viability, T/C [32] of 69%. It also gave a viability, T/C [17] of 82.3%, a viability, T/C [18] of 84.8% and a viability, T/C [19] of 70.1%. The viability, T/C [20] was 63.3%, the viability, T/C [33] was 77.9% and the viability, T/C [34] was 71.6%. For the same compound, the viability, T/C [21] was 77.2%, the viability, T/C [22] was 72% and the viability, T/C [23] was 71%. It also gave a viability, T/C [24] of 70.9%, a viability, T/C [35] of 66.8% and a viability, T/C [36] of 61%.
With `NC1c2ccccc2OC12CCN(c1cnc3c(N4CCCc5ncccc54)n[nH]c3n1)CC2` (stereo unspecified) + CCn1c(-c2cccnc2C(C)OC)c2c3cc(ccc31)N1CCOC(CC(NC(=O)C(C(C)C)N(C)C(=O)C3(F)CCN(C(=O)C#CC(C)(C)N(C)C)CC3)C(=O)N3CCCC(N3)C(=O)OCC(C)(C)C2)C1 the IC50 (second compound 0.000949 µM) was > 10 µM, the IC50 (second compound 0.003 µM) was > 10 µM and the IC50 (second compound 0.00949 µM) was > 10 µM. The IC50 (second compound 0.03 µM) was > 10 µM, the IC50 (second compound 0.0949 µM) was > 10 µM and the IC50 (second compound 0.3 µM) was > 10 µM. The viability, T/C [1] was 106%, the viability, T/C [2] was 97.5% and the viability, T/C [3] was 88.2%. The viability, T/C [4] was 82.3%, the viability, T/C [25] was 84.3% and the viability, T/C [26] was 84.3%. For the same compound, the viability, T/C [5] was 98.8%, the viability, T/C [6] was 86.1% and the viability, T/C [7] was 82.2%. For the same compound, the viability, T/C [8] was 79.9%, the viability, T/C [27] was 93.3% and the viability, T/C [28] was 67.4%. It also gave a viability, T/C [9] of 97.3%, a viability, T/C [10] of 84.3% and a viability, T/C [11] of 84.5%. For the same compound, the viability, T/C [12] was 73.8%, the viability, T/C [29] was 89.8% and the viability, T/C [30] was 76.1%. For the same compound, the viability, T/C [13] was 102%, the viability, T/C [14] was 84.4% and the viability, T/C [15] was 70.6%. For the same compound, the viability, T/C [16] was 86%, the viability, T/C [31] was 79.2% and the viability, T/C [32] was 68.1%. For the same compound, the viability, T/C [17] was 75.6%, the viability, T/C [18] was 82.6% and the viability, T/C [19] was 81%. For the same compound, the viability, T/C [20] was 69.3%, the viability, T/C [33] was 74% and the viability, T/C [34] was 71.9%. The viability, T/C [21] was 67.6%, the viability, T/C [22] was 60.1% and the viability, T/C [23] was 59.4%. For the same compound, the viability, T/C [24] was 63.1%, the viability, T/C [35] was 70.9% and the viability, T/C [36] was 59.9%.
